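96-well plates; 48 h exposure; 5 concentrations. Endpoints by linear interpolation between flanking doses. Not reached: highest tested concentration assigned. GI50 = concentration required for 50% inhibition of growth.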 Activity calls are given as the source filed them. Rule as the data show it: active = GI50 up to about 1.1 µM and inactive = higher.

Some test systems named below: NCI-H522; TK-10; HOP-92; HCC 2998; SW-620; SK-OV-3; CCRF-CEM; UO-31; MDA-MB-231; SK-MEL-5; RXF 393; Hs-578T; NCI/ADR-RES; HT-29; SK-MEL-2; HOP-62; NCI-H23; KM12; SF-539; DU-145.
Common to all, as to assay: NCI tumour cell line growth inhibition, 48 h

For `O=C1c2nc3n(c2C(=O)c2c1nc1n2CCC1)CCC3`, the GI50 was 6.44 µM (inactive) with NCI-H522; 27.6 µM (inactive) in the test with TK-10; 13.1 µM (inactive) in the test with HOP-92; 8.22 µM (inactive) in the test on HCC 2998; 5.13 µM (inactive) in the test with SW-620; 23.7 µM (inactive) with SK-OV-3. In addition, the GI50 in the test on CCRF-CEM is 6.41 µM (inactive); with UO-31, 18.8 µM (inactive); in the test with MDA-MB-231 it was > 10 µM (inactive); in the test on SK-MEL-5, 1.44 µM (inactive); with RXF 393, 2.74 µM (inactive); in the test with Hs-578T, > 10 µM (inactive). The GI50 is > 10 µM (inactive) in the test with NCI/ADR-RES; 3.14 µM (inactive) in the test on HT-29; 3.66 µM (inactive) in the test on SK-MEL-2; 4.62 µM (inactive) with HOP-62; 2.49 µM (inactive) with NCI-H23; 4.41 µM (inactive) in the test with KM12. Moreover, the GI50 with SF-539 was 3.64 µM (inactive); with DU-145 it was > 10 µM (inactive).
As for `Cc1ccc(S(=O)(=O)c2ccc([N+](=O)[O-])o2)cc1`, the GI50 in the test on NCI-H522 is 0.185 µM (active); in the test on TK-10, 1.57 µM (inactive); with HOP-92 it was 2.38 µM (inactive); in the test on HCC 2998, 4.83 µM (inactive); in the test on SW-620 it was 0.468 µM (active); in the test with SK-OV-3 it was 18.7 µM (inactive). The GI50 in the test on CCRF-CEM is 0.242 µM (active); in the test on UO-31, 1.44 µM (inactive); in the test on MDA-MB-231, 2.21 µM (inactive); in the test with SK-MEL-5, 11 µM (inactive); in the test with RXF 393 it was 1.62 µM (inactive); in the test with Hs-578T, 2.53 µM (inactive). In addition, the GI50 was 2.25 µM (inactive) in the test with NCI/ADR-RES; 1.7 µM (inactive) in the test with HT-29; 9.89 µM (inactive) with SK-MEL-2; 17.7 µM (inactive) in the test with HOP-62; 3.52 µM (inactive) with NCI-H23; 4.43 µM (inactive) in the test with KM12. For the same molecule, the figures for the GI50 with SF-539 and in the test with DU-145 were 1.91 µM (inactive) and 3.66 µM (inactive), respectively.
On to `Clc1ccc(-c2nc3cc(C45CC6CC(CC(C6)C4)C5)ccc3[nH]2)cc1`, for which the GI50 was 19.2 µM (inactive) with NCI-H522; 40.2 µM (inactive) in the test on TK-10; 17.7 µM (inactive) in the test with HOP-92; 31.7 µM (inactive) in the test with HCC 2998; 19.3 µM (inactive) in the test with SW-620; > 100 µM (inactive) in the test with SK-OV-3. The GI50 with CCRF-CEM was 8.3 µM (inactive); in the test with UO-31, 15.3 µM (inactive); in the test on MDA-MB-231, > 100 µM (inactive); with SK-MEL-5, 7.18 µM (inactive); in the test with RXF 393, 72.6 µM (inactive); in the test with Hs-578T, 62.7 µM (inactive). The GI50 was 20.5 µM (inactive) with NCI/ADR-RES; 3.72 µM (inactive) with HT-29; > 100 µM (inactive) with SK-MEL-2; 37.8 µM (inactive) in the test with HOP-62; 52.4 µM (inactive) with NCI-H23; 13.1 µM (inactive) in the test with KM12. The GI50 in the test on SF-539 was 51.6 µM (inactive); in the test on DU-145, 54 µM (inactive).
As to `O=C(N[C@H]1CCC[C@H]1C(=O)Nc1ccc(C(F)(F)F)cc1)OCc1ccccc1`, the GI50 in the test on NCI-H522 was 54.2 µM (inactive); with TK-10 it was > 100 µM (inactive); in the test with HOP-92 it was > 100 µM (inactive); in the test on HCC 2998, > 100 µM (inactive); in the test with SW-620, > 100 µM (inactive); with SK-OV-3, > 100 µM (inactive). Further, the GI50 in the test with CCRF-CEM is > 100 µM (inactive); in the test with UO-31, > 100 µM (inactive); in the test on MDA-MB-231, > 100 µM (inactive); in the test on SK-MEL-5, > 100 µM (inactive); in the test with RXF 393, > 100 µM (inactive); in the test with Hs-578T, 88.5 µM (inactive). Moreover, the GI50 with NCI/ADR-RES, in the test with HT-29, with SK-MEL-2, in the test with HOP-62, in the test on NCI-H23 and with KM12 was > 100 µM (inactive) each time. Further, the GI50 in the test with SF-539 and in the test on DU-145 was > 100 µM (inactive) in each case.
Take `Cc1nc2ccc(Br)cc2c(=O)n1-c1nnc(C(C)(C)C)s1`: the GI50 with NCI-H522, in the test on TK-10, with HOP-92, in the test on HCC 2998, with SW-620 and in the test with SK-OV-3 was > 10 µM (inactive) in each case. Besides, the GI50 with CCRF-CEM was > 10 µM (inactive); with UO-31, 2 µM (inactive); in the test on MDA-MB-231, > 10 µM (inactive); in the test on SK-MEL-5, > 10 µM (inactive); in the test on RXF 393, > 10 µM (inactive); in the test with Hs-578T, 7.46 µM (inactive). Further, the GI50 in the test on NCI/ADR-RES, in the test on HT-29, in the test with SK-MEL-2, in the test with HOP-62, in the test on NCI-H23 and in the test with KM12 was > 10 µM (inactive) throughout. The GI50 in the test with SF-539 and with DU-145 was > 10 µM (inactive) in each case.
For the molecule `N#Cc1c(N2CCN(c3ccc([N+](=O)[O-])cc3)CC2)[n+]([O-])c2ccc(Cl)cc2[n+]1[O-]`, the GI50 was 0.721 µM (active) with NCI-H522; 2.54 µM (inactive) with TK-10; 0.161 µM (active) in the test with HOP-92; 0.944 µM (active) with HCC 2998; 0.646 µM (active) in the test on SW-620; 1.78 µM (inactive) in the test with SK-OV-3. In addition, the GI50 with CCRF-CEM is 0.29 µM (active); in the test with UO-31, 1.43 µM (inactive); in the test on MDA-MB-231 it was 1.04 µM (active); in the test with SK-MEL-5, 6.38 µM (inactive); in the test with RXF 393, 1.79 µM (inactive); with Hs-578T it was 2.11 µM (inactive). The GI50 in the test on NCI/ADR-RES is 1.07 µM (active); in the test on HT-29 it was 1.31 µM (inactive); with SK-MEL-2, 2.2 µM (inactive); in the test on HOP-62, 0.521 µM (active); in the test on NCI-H23 it was 1.71 µM (inactive); in the test with KM12, 1.7 µM (inactive). Besides, the figures for the GI50 in the test with SF-539 and in the test with DU-145 were 1.15 µM (inactive) and 2.16 µM (inactive), respectively.
Take `CC12OOC(c3ccccc31)c1c2ccc2ccccc12` (centres undefined): the GI50 is 0.843 µM (active) in the test with NCI-H522; 9.68 µM (inactive) in the test with TK-10; 2.44 µM (inactive) with HOP-92; 5.05 µM (inactive) with HCC 2998; 1.95 µM (inactive) in the test on SW-620; 20 µM (inactive) in the test on SK-OV-3. The GI50 in the test with CCRF-CEM is 0.904 µM (active); in the test with UO-31, 9.55 µM (inactive); in the test on MDA-MB-231 it was 12 µM (inactive); in the test with SK-MEL-5 it was 8.53 µM (inactive); in the test with RXF 393 it was 1.18 µM (inactive); in the test with Hs-578T, 18.9 µM (inactive). Also, the GI50 with NCI/ADR-RES is 10 µM (inactive); in the test with HT-29, 2.62 µM (inactive); in the test with SK-MEL-2, 12.1 µM (inactive); in the test on HOP-62, 16.2 µM (inactive); in the test on NCI-H23 it was 11.4 µM (inactive); in the test with KM12 it was 2.62 µM (inactive). For the same molecule, the GI50 in the test with SF-539 was 8.15 µM (inactive); in the test on DU-145 it was 18.5 µM (inactive).
`COC(=O)[C@@H]1[C@H]2CC[C@]3(C)[C@@H](OC(C)=O)CC[C@H]3[C@@H]2CC[C@H]1C1(C)SCCS1`: the GI50 with NCI-H522 is 30.5 µM (inactive); with TK-10 it was 75 µM (inactive); with HOP-92, 18.7 µM (inactive); in the test with HCC 2998, 35.6 µM (inactive); in the test on SW-620, 31.9 µM (inactive); in the test on SK-OV-3, 53.6 µM (inactive). Besides, the GI50 is 36.9 µM (inactive) in the test on CCRF-CEM; 38.6 µM (inactive) with UO-31; 17.1 µM (inactive) in the test with MDA-MB-231; 8.77 µM (inactive) in the test on SK-MEL-5; 20.5 µM (inactive) in the test with RXF 393; 23.7 µM (inactive) in the test with Hs-578T. Also, the GI50 in the test on NCI/ADR-RES is 20.4 µM (inactive); with HT-29, 15 µM (inactive); with SK-MEL-2, 19 µM (inactive); in the test on HOP-62, 23.1 µM (inactive); in the test with NCI-H23 it was 37.2 µM (inactive); in the test with KM12, 28.6 µM (inactive). In addition, the GI50 is 37 µM (inactive) in the test on SF-539 and 35.9 µM (inactive) with DU-145.
As for `C(/Cc1ccc2c(c1)OCO2)=N\N=C1NCCCCN1`, the GI50 with NCI-H522 is > 100 µM (inactive); in the test on TK-10, > 100 µM (inactive); in the test with HOP-92, 32.8 µM (inactive); with HCC 2998, 28.2 µM (inactive); in the test on SW-620 it was > 100 µM (inactive); in the test with SK-OV-3, 27.9 µM (inactive). Moreover, the GI50 in the test on CCRF-CEM was 82.2 µM (inactive); with UO-31, 43.9 µM (inactive); in the test with MDA-MB-231, 76.2 µM (inactive); in the test with SK-MEL-5, 25.4 µM (inactive); with RXF 393 it was > 100 µM (inactive); in the test on Hs-578T, > 100 µM (inactive). Also, the GI50 in the test with NCI/ADR-RES was > 100 µM (inactive); in the test with HT-29, 47.8 µM (inactive); in the test on SK-MEL-2, > 100 µM (inactive); in the test with HOP-62, 55.8 µM (inactive); with NCI-H23, > 100 µM (inactive); in the test on KM12, 88.3 µM (inactive). Besides, the GI50 in the test on SF-539 and with DU-145 was > 100 µM (inactive) each time.
On to `CC(C)(C)c1ccc2c(c1)C#Cc1cc3c(cc1OCCCO2)C#Cc1cc(C(C)(C)C)ccc1OCCCO3`, for which the GI50 in the test with NCI-H522, in the test with TK-10, with HOP-92, with HCC 2998, in the test with SW-620 and in the test on SK-OV-3 was > 100 µM (inactive) each time. The GI50 with CCRF-CEM was 42.4 µM (inactive); with MDA-MB-231 it was > 100 µM (inactive); in the test with SK-MEL-5, > 100 µM (inactive); in the test with RXF 393, > 100 µM (inactive); with Hs-578T, > 100 µM (inactive); in the test with NCI/ADR-RES, 10.6 µM (inactive). Besides, the GI50 was > 100 µM (inactive) in the test with HT-29; > 100 µM (inactive) with SK-MEL-2; > 100 µM (inactive) with HOP-62; 2.2 µM (inactive) with NCI-H23; > 100 µM (inactive) in the test on KM12; > 100 µM (inactive) with SF-539. Moreover, in the test on DU-145, the GI50 was > 100 µM (inactive).

(Values after ChEMBL document CHEMBL1201862, “PubChem BioAssay data set” (2004).)
